Experimental findings from ChEMBL document CHEMBL3862023, “Synthesis of N-aryl and N-arylcarbamoylamino derivatives of 1,3-diazinane-5-carboxamide and their activity against glioblastoma LN-229 cell line” (Bioorg Med Chem, 2016) are described below.

Data set [1] in a line: Cytotoxicity against human LN229 cells assessed as concentration required for induction of cell death after 24 hrs by crystal violet staining based light microscopic analysis. The class given is functional, LN-229.
Data set [2] is described as follows: Solubility of the compound in ethanol. The class given is physicochemical.
Data set [3] is described as follows: Solubility of the compound in isopropanol. The class given is physicochemical.
Data set [4] is described as follows: Solubility of the compound in DMSO. The class given is physicochemical.
A short description of data set [5]: Solubility of the compound in chloroform. The class given is physicochemical.
Data set [6] in a line: Solubility of the compound in DMSO/TFA. The class given is physicochemical.
The nature of data set [7]: Solubility of the compound in CHCl3/TFA. The class given is physicochemical.
A short description of data set [8]: Solubility of the compound in trifluoroacetic acid. The class given is physicochemical.

With `CN1C(=O)C(C(=O)Nc2ccc(Cl)c(Cl)c2)C(=O)N(C)C1=O`, in data set [1], the Activity came to 100 µg/mL.

Turning to `O=C1NC(=O)C(C(=O)Nc2ccc(F)cc2)C(=O)N1`, the solubility entry in data set [2] and in data set [3] was “Insoluble” in each case.

`NC(=O)c1ccc(NC(=O)C2C(=O)NC(=O)NC2=O)cc1`: the solubility result in data set [2] and in data set [3] was “Insoluble” each time.

Consider `O=C1NC(=O)C(C(=O)Nc2ccc(C(=O)O)cc2)C(=O)N1`, for which the solubility entry in data set [2] and in data set [3] was “Insoluble” in each case.

On to `CCOC(=O)c1ccc(NC(=O)C2C(=O)N(C)C(=O)N(C)C2=O)cc1`, for which the Activity in data set [1] was determined as 100 µg/mL.

For `O=C1NC(=O)C(C(=O)Nc2cc(Cl)cc(Cl)c2)C(=O)N1`, the solubility result in data set [2] and in data set [3] was “Insoluble” each time.

With `O=C1NC(=O)N(c2ccccc2)C(=O)C1C(=O)Nc1ccc2cc3ccccc3cc2c1` (configuration not stated), in data set [1], the Activity is 100 µg/mL.

Turning to `CN1C(=O)C(C(=O)Nc2ccc3cc4ccccc4cc3c2)C(=O)N(C)C1=O`, the Activity in data set [1] was 100 µg/mL.

With `COc1ccc(NC(=O)C2C(=O)NC(=O)NC2=O)cc1`, the solubility entry in data set [2] and in data set [3] was “Insoluble” each time.

Consider `O=C1NC(=O)C(C(=O)Nc2cccc3ccccc23)C(=O)N1`, for which the Activity in data set [1] was determined as 100 µg/mL.

For `COc1ccc(NC(=O)C2C(=O)NC(=O)NC2=O)cc1OC`, the solubility entry in data set [2] and in data set [3] was “Insoluble” throughout.

Turning to `O=C1NC(=O)N(c2ccccc2)C(=O)C1C(=O)Nc1ccccc1` (configuration not stated), in data set [1], the Activity stood at 100 µg/mL.

On to `CN1C(=O)C(C(=O)Nc2ccc3ccccc3c2)C(=O)N(C)C1=O`, for which the Activity in data set [1] is 100 µg/mL.

Turning to `CN1C(=O)NC(=O)C(C(=O)Nc2ccc(Cl)cc2)C1=O` (configuration not stated), in data set [1], the Activity was 100 µg/mL.

In the case of `COc1ccc2nc(NC(=O)C3C(=O)NC(=O)N(c4ccccc4)C3=O)sc2c1` (configuration not stated), the Activity in data set [1] came out at 100 µg/mL.

Regarding `CN1C(=O)C(C(=O)Nc2cccc(O)c2)C(=O)N(C)C1=O`, in data set [1], the Activity is 100 µg/mL.

Consider `CN1C(=O)C(C(=O)Nc2cccc(I)c2)C(=O)N(C)C1=O`, for which the Activity in data set [1] was 100 µg/mL.

With `CN1C(=O)C(C(=O)Nc2ccc([N+](=O)[O-])cc2)C(=O)N(C)C1=O`, the Activity in data set [1] turned out to be 100 µg/mL.

Turning to `CN1C(=O)NC(=O)C(C(=O)NNC(=O)Nc2ccc(F)cc2)C1=O` (configuration not stated), the solubility result in data set [4], in data set [5], in data set [2], in data set [6], in data set [3] and in data set [7] was “Insoluble” throughout. Moreover, the solubility entry in data set [8] is given as “Insoluble”.

Turning to `O=C1NC(=O)C(C(=O)Nc2cc(Cl)ccc2Cl)C(=O)N1`, the solubility result in data set [2] and in data set [3] was “Insoluble” each time.

For `O=C1NC(=O)C(C(=O)Nc2ccc3ccccc3c2)C(=O)N1`, the Activity in data set [1] worked out at 100 µg/mL.

Regarding `O=C1NC(=O)C(C(=O)NNC(=O)Nc2ccc(O)c([N+](=O)[O-])c2)C(=O)N1`, the solubility result in data set [4] is on record as “Insoluble”; in data set [5], “Insoluble”; in data set [2], “Insoluble”; in data set [6], “Soluble”; in data set [3] it was “Insoluble”; in data set [7], “Soluble”. Besides, in data set [8], the solubility result is reported as “Soluble”.

Consider `O=C1NC(=O)C(C(=O)NNC(=O)Nc2ccc(O)cc2)C(=O)N1`, for which the solubility entry was “Insoluble” in data set [4]; “Insoluble” in data set [5]; “Insoluble” in data set [2]; “Soluble” in data set [6]; “Insoluble” in data set [3]; “Soluble” in data set [7]. Also, the solubility entry in data set [8] is on record as “Soluble”.

For the molecule `O=C1NC(=O)C(C(=O)Nc2ccc3cc4ccccc4cc3c2)C(=O)N1`, the Activity in data set [1] was determined as 100 µg/mL.

For the molecule `O=C(NNC(=O)C1C(=O)NC(=O)N(c2ccccc2)C1=O)Nc1cccc(O)c1` (configuration not stated), the solubility result in data set [4], in data set [5], in data set [2], in data set [6], in data set [3] and in data set [7] was “Insoluble” each time. The solubility entry in data set [8] was “Insoluble”.

Consider `CN1C(=O)C(C(=O)Nc2ccc(O)cc2)C(=O)N(C)C1=O`, for which the Activity in data set [1] worked out at 100 µg/mL.

On to `CN1C(=O)NC(=O)C(C(=O)NNC(=O)Nc2ccc(O)c([N+](=O)[O-])c2)C1=O` (configuration not stated), for which the solubility result in data set [4], in data set [5], in data set [2], in data set [6], in data set [3] and in data set [7] was “Insoluble” each time. For the same molecule, the solubility entry in data set [8] is reported as “Insoluble”.

As to `O=C(O)c1ccc(NC(=O)C2C(=O)NC(=O)N(c3ccccc3)C2=O)cc1` (configuration not stated), the Activity in data set [1] is 100 µg/mL.

Turning to `O=C1NC(=O)C(C(=O)Nc2ccc(Cl)c(Cl)c2)C(=O)N1`, the solubility entry in data set [2] and in data set [3] was “Insoluble” each time.

In the case of `CN1C(=O)C(C(=O)Nc2ccc(Cl)cc2Cl)C(=O)N(C)C1=O`, the Activity in data set [1] amounted to 100 µg/mL.

In the case of `O=C1NC(=O)C(C(=O)Nc2ccc([N+](=O)[O-])cc2)C(=O)N1`, the solubility entry in data set [2] and in data set [3] was “Insoluble” in each case. Also, the Activity in data set [1] is 100 µg/mL.

`COc1ccc(NC(=O)C2C(=O)NC(=O)N(c3ccccc3)C2=O)cc1` (configuration not stated): the Activity in data set [1] came to 100 µg/mL.

Turning to `Cc1ccc(NC(=O)C2C(=O)NC(=O)NC2=O)cc1C`, the solubility entry in data set [2] and in data set [3] was “Insoluble” each time. Besides, the Activity in data set [1] turned out to be 100 µg/mL.

For `CN1C(=O)C(C(=O)Nc2cccc(Br)c2)C(=O)N(C)C1=O`, the Activity in data set [1] is 100 µg/mL.

For `CN1C(=O)C(C(=O)Nc2cccc(Cl)c2Cl)C(=O)N(C)C1=O`, in data set [1], the Activity turned out to be 100 µg/mL.

As for `CCOC(=O)c1ccc(NC(=O)C2C(=O)NC(=O)NC2=O)cc1`, the solubility result in data set [2] and in data set [3] was “Insoluble” throughout. Also, the Activity in data set [1] came to 100 µg/mL.

Take `COc1cc(NC(=O)C2C(=O)NC(=O)N(c3ccccc3)C2=O)cc(OC)c1OC` (configuration not stated): the Activity in data set [1] was 100 µg/mL.

As to `CN1C(=O)C(C(=O)Nc2cc(Cl)ccc2Cl)C(=O)N(C)C1=O`, in data set [1], the Activity stood at 100 µg/mL.

Take `CN1C(=O)NC(=O)C(C(=O)Nc2cccc(O)c2)C1=O` (configuration not stated): the Activity in data set [1] amounted to 100 µg/mL.

For the molecule `CN1C(=O)C(C(=O)Nc2cccc3ccccc23)C(=O)N(C)C1=O`, in data set [1], the Activity is 100 µg/mL.

`O=C1NC(=O)C(C(=O)Nc2ccc(Cl)cc2Cl)C(=O)N1`: the solubility result in data set [2] and in data set [3] was “Insoluble” each time.

As for `O=C1NC(=O)N(c2ccccc2)C(=O)C1C(=O)Nc1nc2ccc([N+](=O)[O-])cc2s1` (configuration not stated), the Activity in data set [1] came out at 100 µg/mL.

Turning to `O=C1NC(=O)N(c2ccccc2)C(=O)C1C(=O)Nc1cccc2ccccc12` (configuration not stated), the Activity in data set [1] amounted to 100 µg/mL.

For `O=C1NC(=O)C(C(=O)Nc2ccc(I)cc2)C(=O)N1`, the solubility result in data set [2] and in data set [3] was “Insoluble” each time.

As for `CN1C(=O)C(C(=O)Nc2ccc(C(=O)O)cc2)C(=O)N(C)C1=O`, the Activity in data set [1] was 100 µg/mL.

For `CN1C(=O)NC(=O)C(C(=O)Nc2ccc3cc4ccccc4cc3c2)C1=O` (configuration not stated), the Activity in data set [1] was determined as 100 µg/mL.

Take `O=C1NC(=O)C(C(=O)Nc2ccccc2)C(=O)N1`: the solubility result in data set [2] and in data set [3] was “Insoluble” in each case.

As to `O=C1NC(=O)C(C(=O)Nc2cccc(Br)c2)C(=O)N1`, the solubility result in data set [2] and in data set [3] was “Insoluble” in each case. Further, the Activity in data set [1] was determined as 100 µg/mL.

In the case of `O=C1NC(=O)C(C(=O)Nc2ccc(O)cc2)C(=O)N1`, the solubility result in data set [2] and in data set [3] was “Insoluble” each time. Also, in data set [1], the Activity amounted to 100 µg/mL.

As to `O=C1NC(=O)N(c2ccccc2)C(=O)C1C(=O)Nc1ccc(Cl)cc1Cl` (configuration not stated), the Activity in data set [1] stood at 100 µg/mL.

As for `CN1C(=O)C(C(=O)NNc2ccc([N+](=O)[O-])cc2)C(=O)N(C)C1=O`, the Activity in data set [1] was determined as 100 µg/mL.

For the molecule `O=C1NC(=O)C(C(=O)Nc2ccc(Br)cc2)C(=O)N1`, the solubility entry in data set [2] and in data set [3] was “Insoluble” in each case.

With `COc1ccc(NC(=O)C2C(=O)NC(=O)N(C)C2=O)cc1` (configuration not stated), the Activity in data set [1] was 100 µg/mL.

For `CN1C(=O)C(C(=O)Nc2ccccc2O)C(=O)N(C)C1=O`, the Activity in data set [1] amounted to 100 µg/mL.

Turning to `O=C1NC(=O)C(C(=O)Nc2cccc([N+](=O)[O-])c2)C(=O)N1`, the solubility entry in data set [2] and in data set [3] was “Insoluble” in each case.

With `O=C1NC(=O)C(C(=O)Nc2cccc(Cl)c2Cl)C(=O)N1`, the solubility entry in data set [2] and in data set [3] was “Insoluble” each time.

As for `O=C1NC(=O)N(c2ccccc2)C(=O)C1C(=O)Nc1ccc(Br)cc1` (configuration not stated), the Activity in data set [1] is 100 µg/mL.

For the molecule `O=C1NC(=O)C(C(=O)Nc2cccc(O)c2)C(=O)N1`, the solubility entry in data set [2] and in data set [3] was “Insoluble” in each case.

In the case of `CN1C(=O)C(C(=O)Nc2ccc(Br)cc2)C(=O)N(C)C1=O`, the Activity in data set [1] stood at 100 µg/mL.

For `O=C1NC(=O)N(c2ccccc2)C(=O)C1C(=O)Nc1ccc(I)cc1` (configuration not stated), the Activity in data set [1] was 100 µg/mL.

For the molecule `COc1cc(NC(=O)C2C(=O)NC(=O)NC2=O)cc(OC)c1OC`, the solubility entry in data set [2] and in data set [3] was “Insoluble” each time. Also, the Activity in data set [1] was determined as 100 µg/mL.

For `CN1C(=O)C(C(=O)Nc2ccccc2-c2ccccc2)C(=O)N(C)C1=O`, the Activity in data set [1] stood at 100 µg/mL.

`O=C1NC(=O)C(C(=O)Nc2ccc(Cl)cc2)C(=O)N1`: the solubility result in data set [2] and in data set [3] was “Insoluble” throughout.

`CN1C(=O)C(C(=O)Nc2ccc(-c3ccccc3)cc2)C(=O)N(C)C1=O`: the Activity in data set [1] came to 100 µg/mL.
